Measurements as given in US8329422B2, “Analysis of circulating tumor cells, fragments, and debris” (Veridex LLC, priority 2001, dated 2012).

Assays:
Format in all cases: cell-based
[1] = Viability of LnCaP cells by trypan blue exclusion after culture with paclitaxel; conditions: human, LnCaP prostate cell line; LnCaP cells cultured with 40 nM paclitaxel for 72 hours
Protocol: (§1) To investigate the effect of apoptosis induced by cytotoxic agents on flow cytometric and CELLSPOTTER® analysis of CTC, cells from the prostate cell line LnCaP were cultured in the presence or absence of 40 nM paclitaxel for 72 hours. […] The treated and untreated LnCaP cells were spiked into blood of healthy donors, selected by the ferrofluid methods described above, and analyzed by the CELLSPOTTER® system.

[2] = tested on: LnCaP cells; test: M30 Cytodeath antibody staining of caspase-cleaved cytokeratin 18; conditions: paclitaxel treated LnCaP cells
Protocol: Cells of the prostate cell line LnCaP were cultured with or without paclitaxel and spiked into blood of healthy donors.

[3] = tested on: LnCaP cells; test: CELLSPOTTER analysis of paclitaxel treated LnCaP cells spiked into blood of healthy donors (model to mimic tumor cell death); conditions: immunomagnetically selected
Protocol: as §1

With `CC(=O)O[C@H]1C(=O)[C@@]2(C)[C@H]([C@H](OC(=O)c3ccccc3)[C@]3(O)C[C@H](OC(=O)[C@H](O)[C@@H](NC(=O)c4ccccc4)c4ccccc4)C(C)=C1C3(C)C)[C@]1(OC(C)=O)CO[C@@H]1C[C@@H]2O` [paclitaxel] the viability at 72 h, 40 nM [1] was 33%, the “staining with M30 Cytodeath antibody (early apoptosis)” value [2] was “stained with M30” and the “signs of apoptosis (morphology, punctate cytokeratin staining)” value [3] was “displayed signs of apoptosis”.
